Measured values as given in patent US9409884B2 (Rigel Pharmaceuticals, Inc., priority 2012, dated 2016).

Target: AMPK
Experiment: AMPK activation, enzyme-linked immunosorbent assay
Assay type: biochemical
Settings: Table 10, compounds of Table 3
In short: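 AMPK activation by test compounds was measured by enzyme-linked immunosorbent assay.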

NC(=O)c1ccc(CN2CC3CC2CN3C(=O)c2nc3ccc(OC4CCN(c5ccc(C(F)(F)F)cc5)CC4)cc3o2)cc1 (stereo not shown) [Compound 3-9, 4-((5-(6-(1-(4-(trifluoromethyl)phenyl)piperidin-4-yloxy)benzo[d]oxazole-2-carbonyl)-2,5-diazabicyclo[2.2.1]heptan-2-yl)methyl)benzamide] showed an EC50 of 100 to 1000 nM.

N#Cc1ccc(CN2CC3CC2CN3C(=O)c2nc3ccc(OC4CCN(c5ccc(C(F)(F)F)cc5)CC4)cc3o2)cc1 (stereo not shown) [Compound 3-10, 4-((5-(6-(1-(4-(trifluoromethyl)phenyl)piperidin-4-yloxy)benzo[d]oxazole-2-carbonyl)-2,5-diazabicyclo[2.2.1]heptan-2-yl)methyl)benzonitrile] gave an EC50 of 100 to 1000 nM.

O=C(c1ccncc1)N1CC2CC1CN2C(=O)c1nc2ccc(OC3CCN(c4ccc(C(F)(F)F)cc4)CC3)cc2o1 (stereo not shown) [Compound 3-11, (5-isonicotinoyl-2,5-diazabicyclo[2.2.1]heptan-2-yl)(6-(1-(4-(trifluoromethyl)phenyl)piperidin-4-yloxy)benzo[d]oxazol-2-yl)methanone] was tested, and the EC50 was 100 to 1000 nM.

For N#Cc1ccc(C(=O)N2CC3CC2CN3C(=O)c2nc3ccc(OC4CCN(c5ccc(C(F)(F)F)cc5)CC4)cc3o2)cc1 (stereo not shown) [Compound 3-12, 4-(5-(6-(1-(4-(trifluoromethyl)phenyl)piperidin-4-yloxy)benzo[d]oxazole-2-carbonyl)-2,5-diazabicyclo[2.2.1]heptane-2-carbonyl)benzonitrile], the EC50 was less than 100 nM.

With O=C(c1ccc(F)cc1)N1CC2CC1CN2C(=O)c1nc2ccc(OC3CCN(c4ccc(C(F)(F)F)cc4)CC3)cc2o1 (stereo not shown) [Compound 3-13, (5-(4-fluorobenzoyl)-2,5-diazabicyclo[2.2.1]heptan-2-yl)(6-(1-(4-(trifluoromethyl)phenyl)piperidin-4-yloxy)benzo[d]oxazol-2-yl)methanone] the EC50 was less than 100 nM.

CC(C)(C)OC(=O)N1CCC(NC(=O)c2nc3ccc(OC4CCN(c5ccc(C(F)(F)F)cc5)CC4)cc3s2)CC1 [Compound 3-14, tert-butyl 4-(6-(1-(4-(trifluoromethyl)phenyl)piperidin-4-yloxy)benzo[d]thiazole-2-carboxamido)piperidine-1-carboxylate] was tested, and the EC50 was 1000 to 10000 nM.

Compound O=C(NC1CCN(Cc2ccncc2)CC1)c1nc2ccc(OC3CCN(c4ccc(C(F)(F)F)cc4)CC3)cc2s1 [Compound 3-15, N-(1-(pyridin-4-ylmethyl)piperidin-4-yl)-6-(1-(4-(trifluoromethyl)phenyl)piperidin-4-yloxy)benzo[d]thiazole-2-carboxamide] has an EC50 of 100 to 1000 nM.

Compound N#Cc1ccc(CN2CCC(NC(=O)c3nc4ccc(OC5CCN(c6ccc(C(F)(F)F)cc6)CC5)cc4s3)CC2)cc1 [Compound 3-16, N-(1-(4-cyanobenzyl)piperidin-4-yl)-6-(1-(4-(trifluoromethyl)phenyl)piperidin-4-yloxy)benzo[d]thiazole-2-carboxamide] has an EC50 of 100 to 1000 nM.

O=C(NC1CCN(Cc2ccncc2)CC1)c1cn2ccc(OC3CCN(c4ccc(C(F)(F)F)cc4)CC3)cc2n1 [Compound 3-17, N-(1-(pyridin-4-ylmethyl)piperidin-4-yl)-7-(1-(4-(trifluoromethyl)phenyl)piperidin-4-yloxy)imidazo[1,2-a]pyridine-2-carboxamide] was tested, and the EC50 was less than 100 nM.

For N#Cc1ccc(CN2CCC(NC(=O)c3cn4ccc(OC5CCN(c6ccc(C(F)(F)F)cc6)CC5)cc4n3)CC2)cc1 [Compound 3-18, N-(1-(4-cyanobenzyl)piperidin-4-yl)-7-(1-(4-(trifluoromethyl)phenyl)piperidin-4-yloxy)imidazo[1,2-a]pyridine-2-carboxamide], the EC50 was less than 100 nM.

For CC(C)(C)OC(=O)N1CCC(NC(=O)c2cnc(OC3CCN(c4ccc(C(F)(F)F)cc4)CC3)cn2)CC1 [Compound 3-19, tert-butyl 4-(5-(1-(4-(trifluoromethyl)phenyl)piperidin-4-yloxy)pyrazine-2-carboxamido)piperidine-1-carboxylate], the EC50 was 1000 to 10000 nM.

With O=C(NC1CCN(Cc2ccncc2)CC1)c1cnc(OC2CCN(c3ccc(C(F)(F)F)cc3)CC2)cn1 [Compound 3-21, N-(1-(pyridin-4-ylmethyl)piperidin-4-yl)-5-(1-(4-(trifluoromethyl)phenyl)piperidin-4-yloxy)pyrazine-2-carboxamide] the EC50 was less than 100 nM.

N#Cc1ccc(CN2CCC(NC(=O)c3cnc(OC4CCN(c5ccc(C(F)(F)F)cc5)CC4)cn3)CC2)cc1 [Compound 3-22, N-(1-(4-cyanobenzyl)piperidin-4-yl)-5-(1-(4-(trifluoromethyl)phenyl)piperidin-4-yloxy)pyrazine-2-carboxamide] showed an EC50 of less than 100 nM.

In the case of N#Cc1ccc(CN2CCC(NC(=O)c3cnc(OC4CCN(c5ccc(C(F)(F)F)cc5)CC4)s3)CC2)cc1 [Compound 3-23, N-(1-(4-cyanobenzyl)piperidin-4-yl)-2-(1-(4-(trifluoromethyl)phenyl)piperidin-4-yloxy)thiazole-5-carboxamide], the EC50 is reported as less than 100 nM.

N#Cc1ccc(CN2CCC(NC(=O)c3cnc(OC4CCN(c5ccc(C#N)cc5)CC4)s3)CC2)cc1 [Compound 3-24, N-(1-(4-cyanobenzyl)piperidin-4-yl)-2-(1-(4-cyanophenyl)piperidin-4-yloxy)thiazole-5-carboxamide] was tested, and the EC50 was less than 100 nM.

In the case of N#Cc1ccc(CN2CCC(NC(=O)c3cnc(OC4CCN(Cc5ccc(C(F)(F)F)cc5)CC4)s3)CC2)cc1 [Compound 3-25, N-(1-(4-cyanobenzyl)piperidin-4-yl)-2-(1-(4-(trifluoromethyl)benzyl)piperidin-4-yloxy)thiazole-5-carboxamide], the EC50 is reported as less than 100 nM.

CC(C)(C)OC(=O)N1CCC(Oc2ncc(C(=O)NC3CCN(Cc4ccc(C#N)cc4)CC3)s2)CC1 [Compound 3-26, tert-butyl 4-(5-(1-(4-cyanobenzyl)piperidin-4-ylcarbamoyl)thiazol-2-yloxy)piperidine-1-carboxylate] showed an EC50 of 1000 to 10000 nM.

In the case of N#Cc1ccc(CN2CCC(NC(=O)c3ccc(C(=O)N4CCN(Cc5ccc(Cl)cc5)CC4)cc3)CC2)cc1 [Compound 3-28, 4-(4-(4-chlorobenzyl)piperazine-1-carbonyl)-N-(1-(4-cyanobenzyl)piperidin-4-yl)benzamide], the EC50 is reported as less than 100 nM.

Compound N#Cc1ccc(CN2CCC(NC(=O)c3ccc(C(=O)N4CCN(c5ccc(Cl)cc5)CC4)cc3)CC2)cc1 [Compound 3-29, 4-(4-(4-chlorophenyl)piperazine-1-carbonyl)-N-(1-(4-cyanobenzyl)piperidin-4-yl)benzamide] has an EC50 of 10000 to 100000 nM.

Compound N#Cc1ccc(CN2CCC(NC(=O)c3ccc(C(=O)N4CCN(c5ccc(C(F)(F)F)cn5)CC4)cc3)CC2)cc1 [Compound 3-30, N-(1-(4-cyanobenzyl)piperidin-4-yl)-4-(4-(5-(trifluoromethyl)pyridin-2-yl)piperazine-1-carbonyl)benzamide] has an EC50 of less than 100 nM.

N#Cc1ccc(CN2CCC(NC(=O)c3ccc(C(=O)NC4CCN(Cc5ccc(C(F)(F)F)cc5)CC4)cc3)CC2)cc1 [Compound 3-31, N^1-(1-(4-cyanobenzyl)piperidin-4-yl)-N^4-(1-(4-(trifluoromethyl)benzyl)piperidin-4-yl)terephthalamide] gave an EC50 of less than 100 nM.

With N#Cc1ccc(CN2CCC(NC(=O)c3ccc(C(=O)NC4CCN(c5ccccc5)CC4)cc3)CC2)cc1 [Compound 3-32, N^1-(1-(4-cyanobenzyl)piperidin-4-yl)-N^4-(1-phenylpiperidin-4-yl)terephthalamide] the EC50 was 10000 to 100000 nM.
